From PubChem BioAssay (NCI)
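How tested: cells in 96-well plates exposed to compound for 48 hours at five concentrations. TGI denotes the concentration required for complete inhibition of growth.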 Where a SMILES comes first, the peptide text is derived from it.

How the values were obtained:
Assay in all cases: inhibition of tumour cell growth, NCI panel, 48 h
NCI-H226 lung = tested on: NCI-H226 lung
SNB-19 CNS = tested on: SNB-19 CNS
PC-3 prostate = tested on: PC-3 prostate
A549 NSCLC = tested on: A549 NSCLC
HOP-62 NSCLC = tested on: HOP-62 NSCLC
MOLT-4 leukemia = tested on: MOLT-4 leukemia
SF-539 CNS = tested on: SF-539 CNS
SF-295 CNS = tested on: SF-295 CNS
SK-MEL-2 melanoma = tested on: SK-MEL-2 melanoma
786-0 renal = tested on: 786-0 renal
M14 melanoma = tested on: M14 melanoma
U251 CNS = tested on: U251 CNS
SW-620 colon = tested on: SW-620 colon
SK-OV-3 ovarian = tested on: SK-OV-3 ovarian
MDA-N = tested on: MDA-N
SK-MEL-5 melanoma = tested on: SK-MEL-5 melanoma
SN12C renal = tested on: SN12C renal
OVCAR-8 ovarian = tested on: OVCAR-8 ovarian
HL-60(TB) leukemia = tested on: HL-60(TB) leukemia
SK-MEL-28 melanoma = tested on: SK-MEL-28 melanoma
SF-268 CNS = tested on: SF-268 CNS
RXF 393 renal = tested on: RXF 393 renal
NCI-H23 lung = tested on: NCI-H23 lung
HCT-116 colon = tested on: HCT-116 colon
HS 578T breast = tested on: HS 578T breast
DU-145 prostate = tested on: DU-145 prostate
MCF7 breast = tested on: MCF7 breast
NCI-H460 lung = tested on: NCI-H460 lung
KM12 colon = tested on: KM12 colon
OVCAR-3 ovarian = tested on: OVCAR-3 ovarian
MDA-MB-231 breast = tested on: MDA-MB-231 breast
K-562 leukemia = tested on: K-562 leukemia
IGROV1 ovarian = tested on: IGROV1 ovarian
NCI-H522 lung = tested on: NCI-H522 lung
NCI/ADR-RES ovarian = tested on: NCI/ADR-RES ovarian
HCC-2998 colon = tested on: HCC-2998 colon
RPMI-8226 leukemia = tested on: RPMI-8226 leukemia
HT29 colon = tested on: HT29 colon
SR leukemia = tested on: SR leukemia
BT-549 breast = tested on: BT-549 breast
SNB-75 CNS = tested on: SNB-75 CNS
CAKI-1 renal = tested on: CAKI-1 renal
UACC-62 melanoma = tested on: UACC-62 melanoma
OVCAR-4 ovarian = tested on: OVCAR-4 ovarian
HCT-15 colon = tested on: HCT-15 colon
MALME-3M melanoma = tested on: MALME-3M melanoma
EKVX NSCLC = tested on: EKVX NSCLC
ACHN renal = tested on: ACHN renal
UACC-257 melanoma = tested on: UACC-257 melanoma
HOP-92 NSCLC = tested on: HOP-92 NSCLC
LOX IMVI melanoma = tested on: LOX IMVI melanoma
COLO 205 colon = tested on: COLO 205 colon
OVCAR-5 ovarian = tested on: OVCAR-5 ovarian
CCRF-CEM leukemia = tested on: CCRF-CEM leukemia
T-47D breast = tested on: T-47D breast
MDA-MB-435 = tested on: MDA-MB-435
UO-31 renal = tested on: UO-31 renal
TK-10 renal = tested on: TK-10 renal

Measured: TGI

CCC(C)C(NC(=O)C(NC(=O)C(CC(N)=O)NC(=O)CN)C(C)O)C(=O)NC(C(=O)NC(C)C(=O)NC(C(=O)NC(CCC(=O)O)C(=O)NC(CC(C)C)C(=O)NC(CC(=O)O)C(=O)NC(C(=O)NC(Cc1ccc(O)cc1)C(=O)N1CCCC1C(=O)O)C(C)O)C(C)C)C(C)C (stereo not drawn) (H-GNTIVAVELDTYP-OH; configuration not given here)
> 50 µM: all assays above
